In patent publication US20260226494A1 (HANGZHOU RUIFENG BIOSCIENCE CO., LTD., priority 2023, published 2026):

Assays:
[1] = system: T1 generation soybean transgenic events; assay: Flazasulfuron tolerance test on progeny of 54 single-copy events; design: dose or concentration left out as unconfirmed; conditions: […] g a.i./ha
[2] = system: T1 generation soybean transgenic events; conditions: in vivo
[3] = system: T1 generation of five transformation events (XP-2, XP-195, XP-325, XP-326, XP-552); design: species or system Glycine max; conditions: in vivo
Description: At the V4 stage, 225 g a.i./ha of flazasulfuron was sprayed, and the tolerance of each transformant was observed.

[4] = system: non-transgenic soybean variety Wandou 28; assay: Field herbicide tolerance test, single herbicides (Example 7)
Description: (§1) A randomized block design was adopted with a total of 24 plots, each measuring 4 m×5 m. […] A 1 m interval was set between adjacent plots, with three replicates for each soybean type. At the V3 growth stage, the following treatments were applied: 1) no herbicide application; 2) respective applications of glyphosate at 1800 g a.i./ha, MCPA at 1848 g a.i./ha, mesotrione at 123.75 g a.i./ha, penoxsulam at 45 g a.i./ha, nicosulfuron at 102 g a.i./ha, pyrazosulfuron-ethyl at 56.25 g a.i./ha, and flazasulfuron at 112.5 g a.i./ha. Seedling emergence rate, plant height (measured from the tallest 10 plants), and herbicide damage symptoms (evaluated from the 10 plants with the mildest symptoms) were investigated at 1, 2, and 4 weeks post-application. Herbicide damage symptom grading was performed according to GB/f 17980.42-2000. The formula for calculating herbicide damage rate was as follows:
(§2) [formula] • (×-herbicide damage rate in percentage; N-number of plants with the same level of herbicide damage; S-herbicide damage level; T-total number of plants evaluated; M-highest level)∘

[5] = system: transgenic soybean event XP-2; assay: as above; conditions: for tolerance level of transgenic soybean event XP-2 to herbicides (in words): field test, Table 10 doses
Description: as §1, §2

[6] = system: T0 transgenic soybean plants; assay: Greenhouse glyphosate spray screen of T0 transgenic events; type: in vivo, Glycine max; conditions: 1800 g a.i./ha sprayed at V4 stage; 546 T0 events
Description: After hardening, 685 T0 generation transgenic events obtained from Example 1 were transplanted into natural soil in a greenhouse. Among them, 546 seedlings successfully survived in the greenhouse. When the T0 transgenic soybean plants reached the V4 vegetative stage, 1800 g a.i/ha ofglyphosate was sprayed.

[7] = Wandou 28, 1 week after spraying at V3, doses as Table 10 c1
[8] = Wandou 28, 2 weeks after spraying at V3, doses as Table 10 c1
[9] = Wandou 28, 4 weeks after spraying at V3, doses as Table 10 c1
[10] = XP-2, 2 weeks after spraying at V3, doses as Table 10 c1
[11] = XP-2, 4 weeks after spraying at V3, doses as Table 10 c1

Row | SMILES | damage rate(%) After 1 week [4, 7] [%] | damage rate(%) After 2 weeks [4, 8] [%] | damage rate(%) After 4 weeks [4, 9] [%] | Height(cm) After 2 weeks [5, 10] [cm] | damage rate(%) After 2 weeks [5, 10] [%] | Height(cm) After 4 weeks [5, 11] [cm] | damage rate(%) After 4 weeks [5, 11] [%] | tolerance level of transgenic soybean event XP-2 to herbicides (in words) [5] | further results
1 | COc1cc(OC)nc(NC(=O)NS(=O)(=O)c2ncccc2C(F)(F)F)n1 [Flazasulfuron, flazasulfuron] | – | – | – | – | – | – | – | – | Number of Events: Plant death [1]: 0; Number of Events: No phytotoxicity [2]: 5; Number of Events: having phytotoxicity, New leaves getting yellow [2]: 49; tolerance of each transformant (in words) [3]: XP-2 exhibited the highest tolerance; Seedling rate % ([4]; in vivo): 0%; damage rate(%) After 1 week ([4]; in vivo): 100%; damage rate(%) After 2 weeks ([4]; in vivo): 100%; damage rate(%) After 4 weeks ([4]; in vivo): 100%; Height(cm) After 1 week ([5]; in vivo): 12.49 ± 0.35 cm; Height(cm) After 2 weeks ([5]; in vivo): 14.74 ± 0.2 cm; Height(cm) After 4 weeks ([5]; in vivo): 21.69 ± 0.32 cm; Seedling rate % ([5]; in vivo): 100%; damage rate(%) After 1 week ([5]; in vivo): 0%; damage rate(%) After 2 weeks ([5]; in vivo): 0%; damage rate(%) After 4 weeks ([5]; in vivo): 0%
2 | O=C(O)CNCP(=O)(O)O [Glyphosate, glyphosate] | 100 | 100 | 100 | 14.58 ± 0.24 | 0 | 21.6 ± 0.52 | 0 | high tolerance | Number of Events: Growth stunted, dwarfed plants (phytotoxicity) [6]: 327; Number of Events: Plant death [6]: 132; Number of Events: no phytotoxicity [6]: 87
3 | Cc1cc(Cl)ccc1OCC(=O)O [MCPA] | 100 | 100 | 100 | 14.7 ± 0.32 | 0 | 21.6 ± 0.52 | 0 | high tolerance | –
4 | CS(=O)(=O)c1ccc(C(=O)C2C(=O)CCCC2=O)c([N+](=O)[O-])c1 [Mesotrione, mesotrione] | 100 | 100 | 100 | 14.59 ± 0.24 | 0 | 21.63 ± 0.52 | 0 | high tolerance | –
5 | COc1cc(OC)nc(NC(=O)NS(=O)(=O)c2ncccc2C(=O)N(C)C)n1 [Nicosulfuron, nicosulfuron] | 100 | 100 | 100 | 14.73 ± 0.24 | 0 | 21.66 ± 0.53 | 0 | high tolerance | –
6 | COc1cnc(OC)n2nc(NS(=O)(=O)c3c(OCC(F)F)cccc3C(F)(F)F)nc12 [Penoxsulam, penoxsulam] | – | – | – | – | – | – | – | – | Seedling rate % ([4]; in vivo): 0%; damage rate(%) After 1 week ([4]; in vivo): 100%; damage rate(%) After 2 weeks ([4]; in vivo): 100%; damage rate(%) After 4 weeks ([4]; in vivo): 100%; Height(cm) After 1 week ([5]; in vivo): 12.75 ± 1.01 cm; Height(cm) After 2 weeks ([5]; in vivo): 14.6 ± 0.24 cm; Height(cm) After 4 weeks ([5]; in vivo): 21.61 ± 0.52 cm; Seedling rate % ([5]; in vivo): 100%; damage rate(%) After 1 week ([5]; in vivo): 0%; damage rate(%) After 2 weeks ([5]; in vivo): 0%; damage rate(%) After 4 weeks ([5]; in vivo): 0%
7 | CCOC(=O)c1cnn(C)c1S(=O)(=O)NC(=O)Nc1nc(OC)cc(OC)n1 [Pyrazosulfuron-ethyl, pyrazosulfuron-ethyl] | 100 | 100 | 100 | 14.6 ± 0.24 | 0 | 21.63 ± 0.52 | 0 | high tolerance | –
